Data published in PubChem BioAssay (NCI).
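Results reflect a 48-hour exposure of cells in 96-well plates to compound at five concentrations. TGI is the concentration that stops growth completely.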

What was measured:
Assay in all cases: growth of human tumour cells (NCI), 48 h
[1] = tested on: HOP-62 NSCLC
[2] = tested on: SK-MEL-28 melanoma
[3] = tested on: HS 578T breast
[4] = tested on: OVCAR-3 ovarian
[5] = tested on: SN12C renal
[6] = tested on: NCI-H23 lung
[7] = tested on: COLO 205 colon
[8] = tested on: OVCAR-4 ovarian
[9] = tested on: SR leukemia
[10] = tested on: HT29 colon
[11] = tested on: RXF 393 renal
[12] = tested on: HCT-116 colon
[13] = tested on: RPMI-8226 leukemia
[14] = tested on: SK-OV-3 ovarian
[15] = tested on: IGROV1 ovarian
[16] = tested on: UACC-257 melanoma
[17] = tested on: CAKI-1 renal
[18] = tested on: UO-31 renal
[19] = tested on: MALME-3M melanoma
[20] = tested on: DU-145 prostate

Measured: TGI

CC(C)N1CSC(=S)N(Cc2ccccc2)C1
4.81 µM: [9]
6.27 µM: [11]
6.04 µM: [10]
not listed: [16] | [17] | [18] | [19] | [20]
> 10 µM: all other assays above

CCOC(=O)CN1CCSC1=NC#N
not listed: [3] | [9] | [20]
> 100 µM: all other assays above

O=C(Nc1ccc([N+](=O)[O-])cc1)C(=O)C(C(=O)c1ccccc1F)C1OC(=O)c2ccccc21 (stereo not given)
79.6 µM: [11]
68 µM: [7]
68.9 µM: [13]
64.7 µM: [9]
not listed: [3] | [4] | [19] | [20]
> 100 µM: all other assays above

CC(C)=CCC/C(C)=C/Cc1c(O)ccc2c1[nH]c1cc(O)c(C)cc12
21.2 µM: [4]
12.1 µM: [8]
23.4 µM: [1]
not listed: [3] | [6] | [16] | [17] | [20]
> 25 µM: all other assays above

CCOC(CCCN1CCC2(CC1)C(=O)N(C)CN2c1ccccc1)(OCC)c1ccc(F)cc1
14.7 µM: [1]
18.5 µM: [16]
39.5 µM: [6]
29.9 µM: [13]
46.5 µM: [20]
21.9 µM: [5]
19.8 µM: [18]
49.2 µM: [17]
31.2 µM: [19] | [15]
30.5 µM: [2]
46.8 µM: [14]
14 µM: [10]
6.88 µM: [7]
26.8 µM: [4]
34.6 µM: [11]
14.2 µM: [12]

CC1=NN(C(=O)c2ccc(Cl)cc2)C(=O)/C1=C/c1cccc([N+](=O)[O-])c1
not listed: [3] | [9] | [20]
> 100 µM: all other assays above

CC1CC/C(=C\c2ccc(N(C)C)cc2)C(=O)/C1=C/c1ccc(N(C)C)cc1 (stereo not given)
not listed: [3] | [11] | [13] | [20]
> 100 µM: all other assays above

COC1CC(n2cnc3c(N)ncnc32)OC1CO (stereo not given)
not listed: [3] | [5] | [11] | [14] | [20]
> 100 µM: all other assays above

CN1CN(c2ccccc2)C2(CCN(CCCC(=O)c3cccs3)CC2)C1=O
90.6 µM: [16]
37.4 µM: [1]
73.6 µM: [10]
47.7 µM: [7]
not listed: [3] | [8]
> 100 µM: all other assays above

CC(=O)O[C@]12CCC[C@H]1C1(O)C(O)CCC[C@H]12 (stereo not given in full)
not listed: [3] | [4] | [15] | [17] | [20]
> 100 µM: all other assays above

CC(C)CNC(=O)Cn1c2c(c3ccccc31)CCCC2
not listed: [11] | [20]
> 100 µM: all other assays above

O=[N+]([O-])c1nccn1CC1OC(n2ccnc2[N+](=O)[O-])C(O)C(O)C1O (stereo not given)
not listed: [4] | [5] | [8] | [14] | [15] | [17] | [20]
> 100 µM: all other assays above

CC(CCc1ccc2c(c1)c(=N)c1ccc(N)cc1n2O)CC(C)(C)C (stereo not given)
3.37 µM: [19]
34 µM: [18]
4.43 µM: [11]
4.03 µM: [9] | [12]
3.58 µM: [2]
3.19 µM: [4] | [17]
2.79 µM: [7]
3.22 µM: [5]
3.63 µM: [16]
3.31 µM: [1]
4.64 µM: [13]
2.95 µM: [15]

CCOC(=O)C(O)(NC(=O)Nc1ccc(F)cc1)C(F)(F)F (stereo not given)
not listed: [1] | [4] | [8] | [19] | [20]
> 100 µM: all other assays above

CC(Oc1ccc(OCC2CCCCC2)cc1)C(=O)N(CCO)CCO (stereo not given)
not listed: [1] | [3] | [7] | [9] | [13] | [17] | [20]
> 100 µM: all other assays above

C=C(N=[N+]=[N-])c1cn(C2CC(O)C(CO)O2)c(=O)[nH]c1=O (stereo not given)
not listed: [3] | [8] | [16] | [20]
> 100 µM: all other assays above

Cn1c(=O)nc2n(-c3ccc(Cl)cc3Cl)c3ccccc3nc-2c1=O
5.19 µM: [12]
26 µM: [18]
23.9 µM: [1]
27 µM: [15]
8.73 µM: [7]
5.59 µM: [4]
23.5 µM: [2]
3.26 µM: [19]
> 100 µM: [9] | [13]
13.2 µM: [17]
15.4 µM: [8] | [11]
22 µM: [6]
72.8 µM: [14]
10.3 µM: [10]

CC1=CCS(=O)(=O)C1C(O)C1=C(C)CCCC1(C)C (stereo not given)
not listed: [3] | [9]
> 100 µM: all other assays above

C=CCc1ccc(O)c(-c2cc(C3Oc4c(-c5cc(CC=C)ccc5O)cc(O)cc4[C@@H]3CO)ccc2O)c1 (stereo not given in full)
65.6 µM: [13]
43.3 µM: [12]
55.8 µM: [11]
74.5 µM: [4]
76.4 µM: [6]
51.6 µM: [15]
47.7 µM: [9]
79.3 µM: [10]
75 µM: [1]
76.8 µM: [2]
not listed: [3] | [20]
> 100 µM: all other assays above

COC(=O)[C@@]12OC[C@]34C([C@@H](O)C1O)[C@@]1(C)CC(=O)C(O)=C(C)C1C[C@H]3OC(=O)[C@H](OC(=O)CC(C)C(F)(F)F)[C@H]42 (stereo not given in full)
0.0438 µM: [19]
0.594 µM: [1]
0.0215 µM: [9]
0.415 µM: [7]
1.05 µM: [15]
0.531 µM: [14]
0.0717 µM: [6]
0.18 µM: [12]
0.471 µM: [11]
0.911 µM: [5]
0.561 µM: [8]
0.111 µM: [2]
0.547 µM: [16]
1.07 µM: [17]
1.06 µM: [18]
0.0512 µM: [13]
0.146 µM: [10]

[O-]c1on[n+]2c1c(Nc1ccc(Cl)cc1)nc1ccccc12
not listed: [1] | [3] | [17] | [19] | [20]
> 100 µM: all other assays above

COc1cc(/C=C/C2=NN(c3cccc(S(=O)(=O)O)c3)C3(C2)C(Cl)C(=O)N3c2nc3ccccc3s2)ccc1O (stereo not given)
34.5 µM: [19]
76.6 µM: [2]
39.2 µM: [12]
> 100 µM: [3] | [11]
29.6 µM: [6]
42.6 µM: [16]
33 µM: [17]
37.6 µM: [13]
40.8 µM: [10]
31.5 µM: [15]
30.4 µM: [8]
40.4 µM: [7]
34.8 µM: [9]
33.6 µM: [18]
47.5 µM: [5]
